From PMC5590075, “Synthesis, Antimicrobial, and Antioxidant Activities of Chalcogen-Containing Nitrone Derivatives from (R)-citronellal” (Medicines, 2017)
Converted amounts (≈) assume the structure as drawn.

Legend:
[1] = design: method as in doi:10.1016/j.foodcont.2011.06.017; settings: cited from earlier work
[2] = design: method as in doi:10.1016/j.foodcont.2011.06.017; settings: cited from earlier work; remark: listed apart in the source
[3] = design: method as in doi:10.1016/j.foodcont.2011.06.017; settings: cited from earlier work; remark: listed apart in the source
[4] = tested on: L. monocytogenes; design: method as in doi:10.1016/j.lwt.2014.05.036; settings: cited from earlier work
[5] = tested on: E. coli; design: method as in doi:10.1016/j.lwt.2014.05.036; settings: cited from earlier work
[6] = tested on: S. dysenteriae; design: method as in doi:10.1016/j.lwt.2014.05.036; settings: cited from earlier work
[7] = tested on: S. aureus; design: method as in doi:10.1016/j.lwt.2014.05.036; settings: cited from earlier work
[8] = tested on: P. fluorescens; design: method as in doi:10.1016/j.lwt.2014.05.036; settings: cited from earlier work
[9] = tested on: S. Typhimurium; design: method as in doi:10.1016/j.lwt.2014.05.036; settings: cited from earlier work
[10] = tested on: Bacillus cereus ATCC 11778; experiment: agar disk diffusion test; type: cell-based; settings: Bacillus cereus, ATCC11778; B. cereus, 1.0 × 10^8 CFU.mL^−1; 20 μL compound diluted in DMSO (1:1) per 6 mm disc; streptomycin 10 µg; mean of two repetitions
Source text: (§1) To evaluate the antimicrobial potential of the synthesized compounds, the following reference strains of bacteria, that are economically important in foods, were employed: Gram-positive Listeria monocytogenes ATCC 7644, Staphylococcus aureus ATCC 25923, and Bacillus cereus ATCC 11778; Gram-negative Salmonella Typhimurium ATCC 14028, Escherichia coli O157: H7 NCTC 12900 and the clinically important Pseudomonas aeruginosa ATCC 15442.
(§2) The antimicrobial activity assay using the disk diffusion test was realized using the methodology that is recommended by the Clinical Laboratory Standards Institute (CLSI). The determination of the minimum inhibitory concentration (MIC) and minimum bactericidal concentration (MBC) was performed using the macro dilution tube method, in accordance with Rota et al., with modifications. Details of these assays are provided in the Supplemental Material. […]
(§3) 2.1. Antimicrobial activity assay using the disk diffusion test
(§4) The disk diffusion test followed the methodology recommended by the Clinical Laboratory Standards Institute CLSI [4]. The inoculum was standardized by standard McFarland to the concentration of 10^8 CFU.mL−1 and spread on the surface of a Petri dish containing Mueller‐Hinton (MH) agar. Then, the paper disc (6 mm) was put on a plate impregnated with 20 μL of the testing compound previously diluted in DMSO (1:1) and incubated at 37 °C for 24 hours. Zone of inhibition ≥20 mm were considered as strong inhibition, <20–12 mm as moderate inhibition, and <12 mm no inhibition. A positive control with streptomycin antibiotic (10 μg) and a negative one, with paper discs impregnated with distilled water, were used […]
(§5) 2.4. Radical Scavenging Activity […]
(§6) The ABTS radical scavenging activity was determined according to the method described by Erel. Different concentrations of compounds 5a–d and 10 (10–500 μ M) were mixed with the ABTS+ solution, and the decrease in the absorbance at 734 nm was recorded.

[11] = tested on: Staphylococcus aureus ATCC 25923; experiment: agar disk diffusion test; type: cell-based; settings: Staphylococcus aureus, ATCC25923; S. aureus, 1.0 × 10^8 CFU.mL^−1; 20 μL compound diluted in DMSO (1:1) per 6 mm disc; streptomycin 10 µg; mean of two repetitions
Source text: as §1, §2, §3, §4, §5, §6

[12] = tested on: Escherichia coli O157: H7 NCTC 12900; experiment: agar disk diffusion test; type: cell-based; settings: Escherichia coli, NCTC12900; E. coli O157:H7, 1.0 × 10^8 CFU.mL^−1; 20 μL compound diluted in DMSO (1:1) per 6 mm disc; streptomycin 10 µg; mean of two repetitions
Source text: as §1, §2, §3, §4, §5, §6

[13] = tested on: Pseudomonas aeruginosa ATCC 15442; experiment: agar disk diffusion test; type: cell-based; settings: Pseudomonas aeruginosa, ATCC15442; P. aeruginosa, 1.0 × 10^8 CFU.mL^−1; 20 μL compound diluted in DMSO (1:1) per 6 mm disc; streptomycin 10 µg; mean of two repetitions
Source text: as §1, §2, §3, §4, §5, §6

[14] = tested on: Listeria monocytogenes ATCC 7644; experiment: agar disk diffusion test; type: cell-based; settings: Listeria monocytogenes, ATCC7644; L. monocytogenes, 1.0 × 10^8 CFU.mL^−1; 20 μL compound diluted in DMSO (1:1) per 6 mm disc; streptomycin 10 µg; mean of two repetitions
Source text: as §1, §2, §3, §4, §5, §6

[15] = tested on: Salmonella Typhimurium ATCC 14028; experiment: agar disk diffusion test; type: cell-based; settings: Salmonella enterica; S. Typhimurium, 1.0 × 10^8 CFU.mL^−1; 20 μL compound diluted in DMSO (1:1) per 6 mm disc; streptomycin 10 µg; mean of two repetitions
Source text: as §1, §2, §3, §4, §5, §6

**Q.** Which results are given for `CC(C)=CCC[C@@H](C)CC=O` [compound 1, (R)-citronellal]?
**A.** activity in the DPPH assay (in words) [1]: inactive; activity in the ABTS assay (in words) [2]: inactive; effect in the FRAP assay (in words) ([3]; at the same concentrations (equal and higher than 500 mM)): did not present any effect

**Q.** What does the source list for `CC(C)=CCCC(C)(CC=O)Sc1ccc(Cl)cc1` (stereo not drawn) [3-(p-chlorophenyl)thio citronellal]?
**A.** MIC [4]: 2.1 mM (≈ 623 µg/mL); MIC [5]: 4.2 mM (≈ 1250 µg/mL); MIC [6]: 4.2 mM (≈ 1250 µg/mL); MIC [7]: 2.1 mM (≈ 623 µg/mL); MIC [8]: 4.2 mM (≈ 1250 µg/mL); MIC [9]: 4.2 mM (≈ 1250 µg/mL)

**Q.** Which zone of inhibition at 10 µg/disc [10] does the source give for `[H]/N=C(/N)N[C@H]1[C@H](O)[C@@H](O)[C@H](O[C@@H]2O[C@@H](C)[C@](O)(C=O)[C@H]2O[C@@H]2O[C@@H](CO)[C@H](O)[C@@H](O)[C@@H]2NC)[C@@H](N/C(N)=N\[H])[C@@H]1O` [Streptomycin, reference compound] here?
**A.** The zone of inhibition at 10 µg/disc was 26 mm.

**Q.** And the zone of inhibition at 10 µg/disc [11]?
**A.** Its zone of inhibition at 10 µg/disc is 21 mm.

**Q.** What about the zone of inhibition at 10 µg/disc [12] of the same compound?
**A.** The zone of inhibition at 10 µg/disc was 24 mm.

**Q.** What about the zone of inhibition at 10 µg/disc [13] of the same compound?
**A.** The zone of inhibition at 10 µg/disc was 13 mm.

**Q.** What about the zone of inhibition at 10 µg/disc [14] of the same compound?
**A.** The zone of inhibition at 10 µg/disc was 21 mm.

**Q.** What about the zone of inhibition at 10 µg/disc [15] of the same compound?
**A.** The zone of inhibition at 10 µg/disc was 18 mm.

**Q.** With `CC(C)=CCC[C@@H](C)C(C=O)[Se]c1ccccc1` (stereo partly drawn) [3b, α-phenylselenocitronellal] as the compound, how does the “activity in the DPPH assay (in words)” value [1] read?
**A.** The value was “inactive”.

**Q.** What about the “activity in the ABTS assay (in words)” value [2] of the same compound?
**A.** Its value is “inactive”.

**Q.** What about the “concentrations with significant reducing power in the FRAP assay” value [3] of the same compound?
**A.** Its value is ≥ 500 mM.
